Converted amounts (≈) assume the structure as drawn. Where a name gives a salt, the structure may show the parent alone.
How the values were obtained:
[1] = according to WO2007/144005A1 / US9562024B2; hydrobromide; cited from earlier work
[2] = cited from earlier work
[3] = cited from earlier work; remark: listed apart in the source
[4] = Comparative kinetic solubility study in water at room temperature (HPLC vortioxetine peak area, pH and XRPD of filtered solid); conditions: for Analysis 1 XRPD / Analysis 2 XRPD / Analysis 1 pH / Analysis 2 pH: Form β study; for Analysis 1 XRPD / Analysis 2 XRPD: filtered solid; for Analysis 1 pH / Analysis 2 pH: mother liquor
Protocol: A comparative kinetic solubility study of the cocrystal of vortioxetine·HBr and resorcinol 2:1 Form I and with vortioxetine·HBr Form β was performed in water at room temperature (RT). The relative solubility of vortioxetine was obtained by comparison of the vortioxetine peak area in the HPLC analyses of the mother liquors.
The solubility tests were performed in a minireactor HME-R, provided with a 250 mL vessel, a temperature sensor and mechanical stirring.
1 g of each material was stirred in water (150 ml, […]) at 350 rpm. Aliquots of ca. 5 ml of suspension were filtered in a sintered glass funnel (#4) at different times: 30, 60, 180 min and 24 h. After filtration, the pH of the mother liquor was determined. 1 mL of mother liquor was measured with a pipette and diluted to 10 mL with water in a volumetric flask. A portion of this solution was filtered again through a 0.20 µm nylon filter and directly analyzed by HPLC (2 injections for each sample). The filtered solids were analyzed by XRPD, without a drying step, to determine the crystalline phase corresponding to the measured solubility.
The HPLC conditions were the following:
The kinetic solubility of cocrystal vortioxetine hydrobromide and resorcinol Form I and vortioxetine·HBr Form β at room temperature in water was determined in duplicate.

[5] = Stability test under accelerated stability conditions (ICH), crystalline phase checked by XRPD; type: physicochemical; conditions: 40 °C / 75±5% RH
Protocol: The samples were analyzed by XRPD to observe if the crystalline phase was stable (see Table 2).

[6] = compared with vortioxetine hydrobromide Form β (example 140 of US9562024B2); cited from earlier work
[7] = water, room temperature, 30 min
[8] = water, room temperature, 60 min
[9] = water, room temperature, 180 min

Cc1ccc(Sc2ccccc2N2CCNCC2)c(C)c1 [Form α of vortioxetine hydrobromide, vortioxetine hydrobromide]
stability [1]: unstable and is transformed to the Form β of vortioxetine hydrobromide at room temperature | solubilities in water ([2]; Examples 4b and 4d of WO2007/144005A1, listed as vortioxetine hydrobromide Form α, hydrobromide): 2 mg/mL

Cc1ccc(Sc2ccccc2N2CCNCC2)c(C)c1 [Form γ of vortioxetine hydrobromide, vortioxetine hydrobromide]
stability [1]: very unstable | hygroscopicity ([3]; under low-humidity conditions): 2.0%

Cc1ccc(Sc2ccccc2N2CCNCC2)c(C)c1 [Vortioxetine, 1-[2-(2,4-dimethyl-phenylsulfanyl)-phenyl]piperazine]
solubility in water ([2]; 25 °C): 7.8 µg/mL (≈ 26.1 µM)

Cc1ccc(Sc2ccccc2N2CCNCC2)c(C)c1 [Vortioxetine·HBr Form β, vortioxetine hydrobromide]
maximum of solubility afforded after [4]: three hours | spring and parachute effect [4]: not seen | Analysis 1 Average Form β (Vortioxetine area) ([4]; 30 min): 564 | Analysis 2 Average Form β (Vortioxetine area) ([4]; 30 min): 427 | Average Vortioxetine area ([4]; 30 min): 495 | Analysis 1 Average Form β (Vortioxetine area) ([4]; 60 min): 550 | Analysis 2 Average Form β (Vortioxetine area) ([4]; 60 min): 537 | Average Vortioxetine area ([4]; 60 min): 544 | Analysis 1 Average Form β (Vortioxetine area) ([4]; 180 min): 579 | Analysis 2 Average Form β (Vortioxetine area) ([4]; 180 min): 561 | Average Vortioxetine area ([4]; 180 min): 570 | Analysis 1 Average Form β (Vortioxetine area) ([4]; 24 h): 572 | Analysis 2 Average Form β (Vortioxetine area) ([4]; 24 h): 581 | Average Vortioxetine area ([4]; 24 h): 576 | Analysis 1 XRPD [4, 7]: Form β | Analysis 2 XRPD [4, 7]: Form β | Analysis 1 XRPD [4, 8]: Form β | Analysis 2 XRPD [4, 8]: Form β | Analysis 1 XRPD [4, 9]: Form β | Analysis 2 XRPD [4, 9]: Form β | Analysis 1 XRPD ([4]; water, room temperature, 24 h): Form β | Analysis 2 XRPD ([4]; water, room temperature, 24 h): Form β | Analysis 1 pH [4, 7]: 4.9 | Analysis 2 pH [4, 7]: 5.3 | Analysis 1 pH [4, 8]: 4.8 | Analysis 2 pH [4, 8]: 5.1 | Analysis 1 pH [4, 9]: 4.8 | Analysis 2 pH [4, 9]: 5.1 | Analysis 1 pH ([4]; water, room temperature, 24 h): 5.6 | Analysis 2 pH ([4]; water, room temperature, 24 h): 5.5 | crystalline form after 24 hours in water dispersion ([4]; water, room temperature, 24 hours, XRPD): unchanged | pH ([4]; water, room temperature, remaining constant over the study): 4-5 | XRPD ([5]; 7 days): stable | XRPD ([5]; 14 days): stable | XRPD ([5]; 21 days): stable | XRPD ([5]; 28 days, hydrobromide): stable | XRPD ([5]; 28 days, listed as Vortioxetine•HBr Form β, hydrobromide): remained stable

Br.Br.Cc1ccc(Sc2ccccc2N2CCNCC2)c(C)c1.Cc1ccc(Sc2ccccc2N2CCNCC2)c(C)c1.Oc1cccc(O)c1 [cocrystal Form I, cocrystal of vortioxetine hydrobromide and resorcinol]
XRPD ([5]; 7 days): stable | XRPD ([5]; 14 days): stable | XRPD ([5]; 21 days): stable | XRPD ([5]; 28 days): stable | XRPD ([5]; 28 days, listed as cocrystal of vortioxetine hydrobromide and resorcinol Form I): remained stable | XRPD ([5]; 28 days, listed as cocrystal of vortioxetine·HBr and resorcinol Form I): remained stable

Cc1ccc(Sc2ccccc2N2CCNCC2)c(C)c1 [ethyl acetate solvate of vortioxetine hydrobromide]
stability [1]: unstable

Cc1ccc(Sc2ccccc2N2CCNCC2)c(C)c1 [hemihydrate of vortioxetine hydrobromide, vortioxetine hydrobromide]
stability [1]: unstable | hygroscopicity (in words) ([3]; according to WO2007/144005A1 / US9562024B2): hygroscopic

Cc1ccc(Sc2ccccc2N2CCNCC2)c(C)c1 [vortioxetine hemihydrobromide]
kinetic solubility [6]: much lower
